Results taken from the supplement of paper PMC13380429.

Key:
[1] = test system: A549-ACE2 infected with SARS-CoV-2; test: SARS-CoV-2 infection rate relative to DMSO; higher = more infection; settings: 24 h
Calu-3 [2] = test: drug sensitivity score (DSS) for viability; higher = more toxic; extreme values may be limits of the assay; settings: 72 h
HepG2 [3] = test: as above; settings: 72 h
U2OS [4] = test: as above; settings: 72 h
Caco-2 [5] = test: as above; settings: 72 h
Vero E6 [6] = test: as above; settings: 72 h
[7] = test system: A549-ACE2 infected with SARS-CoV-2; test: cell count relative to DMSO; higher = less toxic; settings: 24 h
[8] = test system: A549-ACE2 infected with SARS-CoV-2; test: morphology score (similarity to uninfected cells); higher = more like uninfected cells; settings: 24 h
A549-ACE2 = test: drug-induced phospholipidosis relative to tamoxifen; higher = more phospholipidosis
Calu-3 [9] = test: relative viability EC50 (midpoint between 100% and the lowest measured viability); higher = less toxic; settings: 72 h
HepG2 [10] = test: as above; settings: 72 h
U2OS [11] = test: as above; settings: 72 h
Caco-2 [12] = test: as above; settings: 72 h
Vero E6 [13] = test: as above; settings: 72 h
Calu-3 [14] = test: cell viability relative to DMSO; higher = less toxic; settings: 72 h
HepG2 [15] = test: as above; settings: 72 h
U2OS [16] = test: as above; settings: 72 h
Caco-2 [17] = test: as above; settings: 72 h
Vero E6 [18] = test: as above; settings: 72 h

CNc1cc(OC)c(C(=O)NC2CCN(Cc3ccccc3)C2C)cc1Cl (stereo not given) [nemonapride]
Settings	SARS-CoV-2 infection rate, [1] [%]	cell count, [7] [%]	cell viability, Caco-2 [17] [%]	cell viability, Calu-3 [14] [%]	cell viability, HepG2 [15] [%]	cell viability, U2OS [16] [%]	cell viability, Vero E6 [18] [%]	morphology score, [8]
1 nM	–	–	101	92.2	96	90.7	99.1	–
10 nM	–	–	104	98	96.1	99.4	91.9	–
100 nM	–	–	104	92.6	98.1	94.5	99.5	–
0.3 µM	100	99	–	–	–	–	–	-0.15
1000 nM	–	–	108	105	94.2	98.6	94.7	–
3 µM	61	111	–	–	–	–	–	0.69
10 µM	49	123	–	–	–	–	–	0.82
10000 nM	–	–	90.5	87.5	83.4	93.8	100	–
30 µM	16	122	–	–	–	–	–	0.86

Settings	drug sensitivity score	relative viability EC50 [µM]
Caco-2 [5]	0	–
Caco-2 [12]	–	> 10
Calu-3 [2]	0	–
Calu-3 [9]	–	> 10
HepG2 [3]	0.6	–
HepG2 [10]	–	> 10
U2OS [4]	0	–
U2OS [11]	–	> 10
Vero E6 [6]	0	–
Vero E6 [13]	–	> 10

drug-induced phospholipidosis [%], A549-ACE2
Settings	0.3 µM	0.833333 µM	3.33333 µM	6.66667 µM	10 µM	30 µM
24 h	1.28	6.8	10.9	12.3	18.5	51
48 h	3.09	4.55	12.9	15.7	16.3	43.9
72 h	5.92	4.8	14.4	19.3	24.2	53.2

CCCN1CCN(c2ccc(C(=O)NC3(C(=O)NCC#N)CCCCC3)cc2)CC1 [balicatib]
Settings	SARS-CoV-2 infection rate, [1] [%]	cell count, [7] [%]	cell viability, Caco-2 [17] [%]	cell viability, Calu-3 [14] [%]	cell viability, HepG2 [15] [%]	cell viability, U2OS [16] [%]	cell viability, Vero E6 [18] [%]	morphology score, [8]
1 nM	–	–	107	108	90	100	99.7	–
10 nM	–	–	101	100	103	99.7	108	–
100 nM	–	–	102	98.8	114	95	108	–
0.3 µM	86	107	–	–	–	–	–	0.39
1000 nM	–	–	95.4	108	104	103	98.1	–
3 µM	45	116	–	–	–	–	–	0.76
10 µM	33	119	–	–	–	–	–	0.78
10000 nM	–	–	106	110	101	95.4	105	–
30 µM	20	117	–	–	–	–	–	0.83

Settings	drug sensitivity score	relative viability EC50 [µM]
Caco-2 [5]	0	–
Caco-2 [12]	–	> 10
Calu-3 [2]	0	–
Calu-3 [9]	–	> 10
HepG2 [3]	0	–
HepG2 [10]	–	> 10
U2OS [4]	0	–
U2OS [11]	–	> 10
Vero E6 [6]	0	–
Vero E6 [13]	–	> 10

drug-induced phospholipidosis [%], A549-ACE2
Settings	0.3 µM	0.833333 µM	3.33333 µM	6.66667 µM	10 µM	30 µM
24 h	1.43	-0.89	1.98	6.47	8.06	17.1
48 h	1.09	-1.16	0.49	4.83	7.84	17.9
72 h	4.12	-0.524	1.07	5.37	8.73	20.4

CC(C)C[C@@H](C=O)NC(=O)[C@H](CC(C)C)NC(=O)[C@H](CC(C)C)NC(=O)OCc1ccccc1 [MG-132]
Settings	SARS-CoV-2 infection rate, [1] [%]	cell count, [7] [%]	cell viability, Caco-2 [17] [%]	cell viability, Calu-3 [14] [%]	cell viability, HepG2 [15] [%]	cell viability, U2OS [16] [%]	cell viability, Vero E6 [18] [%]	morphology score, [8]
1 nM	–	–	99.9	96.6	102	99.8	93.1	–
10 nM	–	–	103	113	97	99.7	100	–
100 nM	–	–	94.5	102	107	95.7	104	–
0.3 µM	38	109	–	–	–	–	–	0.7
1000 nM	–	–	17.4	23	22.1	9.3	48.5	–
3 µM	9	37	–	–	–	–	–	0.33
10 µM	20	22	–	–	–	–	–	0.22
10000 nM	–	–	5.2	3.7	-0.1	-0.1	4.4	–
30 µM	30	14	–	–	–	–	–	0.18

Settings	drug sensitivity score	relative viability EC50 [µM]
Caco-2 [5]	15.8	–
Caco-2 [12]	–	0.391
Calu-3 [2]	14.2	–
Calu-3 [9]	–	0.578
HepG2 [3]	14.4	–
HepG2 [10]	–	0.611
U2OS [4]	17	–
U2OS [11]	–	0.377
Vero E6 [6]	11.6	–
Vero E6 [13]	–	0.94

A549-ACE2, 24 h
Settings	drug-induced phospholipidosis [%]
0.3 µM	21.5
0.833333 µM	10.6

O=C(O)CCCCCCCC(=O)O [azelaic-acid]
Settings	SARS-CoV-2 infection rate, [1] [%]	cell count, [7] [%]	cell viability, Caco-2 [17] [%]	cell viability, HepG2 [15] [%]	cell viability, U2OS [16] [%]	morphology score, [8]
1 nM	–	–	105	102	101	–
10 nM	–	–	97	92.3	103	–
100 nM	–	–	103	115	99.4	–
0.3 µM	94	103	–	–	–	0.2
1000 nM	–	–	105	96.4	106	–
3 µM	100	95	–	–	–	-0.03
10 µM	98	102	–	–	–	0.06
10000 nM	–	–	95.6	99	97.7	–
30 µM	103	102	–	–	–	0.01

Settings	drug sensitivity score	relative viability EC50 [µM]
Caco-2 [5]	0	–
Caco-2 [12]	–	> 10
HepG2 [3]	0	–
HepG2 [10]	–	> 10
U2OS [4]	0	–
U2OS [11]	–	> 10

drug-induced phospholipidosis [%], A549-ACE2
Settings	0.3 µM	0.833333 µM	3.33333 µM	6.66667 µM	10 µM	30 µM
24 h	-0.21	-0.53	-0.9	-0.71	-1.82	0.53
48 h	0.97	-0.84	-1.1	0.62	-0.42	2.28
72 h	3.56	0.0211	0.507	0.701	1.19	4.29
